The source made the active and inactive calls.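 The calls were made as follows: active = EC50 at or below 10 µM; inactive = EC50 above 10 µM.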
Biological target: Insulin-degrading enzyme (Homo sapiens) (UniProt P14735)
Test: activators of endogenous IDE in HEK cells, dose response, cell-based, fluorescence polarization (AID 588439)
Conditions: FAbeta-B cleavage fluorescence polarization

Sequence of Insulin-degrading enzyme (Homo sapiens) (P14735 whole entry, looked up): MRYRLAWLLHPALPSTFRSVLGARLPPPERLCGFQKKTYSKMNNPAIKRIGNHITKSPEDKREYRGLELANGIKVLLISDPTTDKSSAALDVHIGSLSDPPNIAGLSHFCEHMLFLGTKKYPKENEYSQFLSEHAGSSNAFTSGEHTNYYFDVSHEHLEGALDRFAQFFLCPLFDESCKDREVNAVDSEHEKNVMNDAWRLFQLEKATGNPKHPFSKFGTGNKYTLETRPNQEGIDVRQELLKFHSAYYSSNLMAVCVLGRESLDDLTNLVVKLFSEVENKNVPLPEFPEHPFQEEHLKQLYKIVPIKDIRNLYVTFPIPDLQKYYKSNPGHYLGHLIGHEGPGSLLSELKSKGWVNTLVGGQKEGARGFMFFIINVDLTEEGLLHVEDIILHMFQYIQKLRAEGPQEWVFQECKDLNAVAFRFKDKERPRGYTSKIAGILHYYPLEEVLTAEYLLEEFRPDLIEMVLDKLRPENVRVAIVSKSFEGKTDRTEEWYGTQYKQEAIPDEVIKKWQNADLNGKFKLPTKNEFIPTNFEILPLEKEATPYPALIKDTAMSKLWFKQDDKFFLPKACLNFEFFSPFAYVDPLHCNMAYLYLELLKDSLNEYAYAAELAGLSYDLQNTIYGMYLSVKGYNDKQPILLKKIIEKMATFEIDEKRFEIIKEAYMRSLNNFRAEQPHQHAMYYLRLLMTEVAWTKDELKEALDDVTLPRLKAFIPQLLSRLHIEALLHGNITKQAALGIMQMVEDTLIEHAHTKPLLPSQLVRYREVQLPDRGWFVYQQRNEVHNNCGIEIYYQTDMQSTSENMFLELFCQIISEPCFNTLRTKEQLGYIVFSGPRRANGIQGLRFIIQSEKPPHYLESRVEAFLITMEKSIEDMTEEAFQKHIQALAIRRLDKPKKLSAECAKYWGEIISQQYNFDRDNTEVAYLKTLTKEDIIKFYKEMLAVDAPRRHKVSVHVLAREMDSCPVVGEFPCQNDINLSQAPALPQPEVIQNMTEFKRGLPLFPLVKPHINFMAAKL

| Structure (SMILES) | EC50 |
| --- | --- |
| C#CCOCCOCCOCCNc1nc(N2CCN(C(=O)CCCCCCCCCCNC(=O)[C@H](CCCCN)n3cc(CCO)nn3)CC2)nc(N2CCN(C(=O)CCCCCCCCCCNC(=O)[C@H](CCCN=C(N)N)n3cc(C[C@@H](C)CC)nn3)CC2)n1 | > 54.7 µM (inactive) |
| C#CCOCCOCCOCCNc1nc(N2CCN(C(=O)CCCCCCCCCCNC(=O)[C@H](CO)n3cc(CCCSC)nn3)CC2)nc(N2CCN(C(=O)CCCCCCCCCCNC(=O)[C@H](CCCCN)n3cc(CCO)nn3)CC2)n1 | > 54.7 µM (inactive) |
| C#CCOCCOCCOCCNc1nc(N2CCN(C(=O)CCCCCCCCCCNC(=O)Cn3cc(C[C@@H](C)O)nn3)CC2)nc(N2CCN(C(=O)CCCCCCCCCCNC(=O)[C@H](CCCN=C(N)N)n3cc(C[C@@H](C)CC)nn3)CC2)n1 | > 54.7 µM (inactive) |
| C#CCOCCOCCOCCNc1nc(N2CCN(C(=O)CCCCCCCCCCNC(=O)Cn3cc(CCCCCN)nn3)CC2)nc(N2CCN(C(=O)CCCCCCCCCCNC(=O)Cn3cc(C[C@@H](C)O)nn3)CC2)n1 | > 54.7 µM (inactive) |

From PubChem BioAssay AID588439 (The Scripps Research Institute Molecular Screening Center, 2011)
